This is an account of results in PubChem BioAssay AID328 (DTP/NCI, 2004).

The test system of the assay is BDF1 mice, P388 leukemia ip, median survival T/C. Put plainly: NCI In Vivo Anticancer Drug Screen. Data for tumor model P388 Leukemia (intraperitoneal) in B6D2F1 (BDF1) mice. To be noted: endpoint: median survival time, higher = longer survival. The method in brief:
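Mice carrying the transplantable tumour receive compound or vehicle. Survival is followed in each arm, and the treated measure is divided by the vehicle measure.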

[1] abbreviates: dose: 12.5 mg/kg/injection, schedule: Q01DX009 (ip), vehicle: saline.
Setting [2] is: dose: 25.0 mg/kg/injection, schedule: Q01DX009 (ip), vehicle: saline.
Where [3] appears, read: dose: 50.0 mg/kg/injection, schedule: Q01DX009 (ip), vehicle: saline.
The mark [4] stands for this setting: dose: 50.0 mg/kg/injection, schedule: Q04DX003 (ip), vehicle: saline.
Setting [5] is: dose: 100.0 mg/kg/injection, schedule: Q01DX009 (ip), vehicle: saline.
Setting [6] is: dose: 100.0 mg/kg/injection, schedule: Q04DX003 (ip), vehicle: saline.
The mark [7] stands for this setting: dose: 200.0 mg/kg/injection, schedule: Q01DX009 (ip), vehicle: saline.
Where [8] appears, read: dose: 200.0 mg/kg/injection, schedule: Q04DX003 (ip), vehicle: saline.
Where [9] appears, read: dose: 400.0 mg/kg/injection, schedule: Q01DX009 (ip), vehicle: saline.
The mark [10] stands for this setting: dose: 400.0 mg/kg/injection, schedule: Q04DX003 (ip), vehicle: saline.
[11] abbreviates: dose: 25.0 mg/kg/injection, schedule: Q01DX009 (ip), vehicle: saline with Tween-80.
Setting [12] is: dose: 100.0 mg/kg/injection, schedule: Q04DX003 (ip), vehicle: saline with Tween-80.
Where [13] appears, read: dose: 100.0 mg/kg/injection, schedule: Q01DX009 (ip), vehicle: saline with Tween-80.
The mark [14] stands for this setting: dose: 100.0 mg/kg/injection, schedule: Q04DX003 (ip), vehicle: Klucel (hydroxypropylcellulose) (HPC).
Where [15] appears, read: dose: 200.0 mg/kg/injection, schedule: Q04DX003 (ip), vehicle: Klucel (hydroxypropylcellulose) (HPC).
Where [16] appears, read: dose: 400.0 mg/kg/injection, schedule: Q04DX003 (ip), vehicle: Klucel (hydroxypropylcellulose) (HPC).

The structures appear in SMILES notation. Where “and” joins values, the source holds several entries; their conditions need not be identical. Equal entries are not always repeated. Inconclusive results and toxic doses are left out.

With `Cc1[nH]c(=O)[nH]c(=O)c1/C=C/C(=O)NC(CO)CC(C)C` (stereo unspecified), the T/C is 108 % of control under setting [1]; 90 % of control under setting [2]; 107 % of control (dose: 25.0 mg/kg/injection, schedule: Q04DX003 (ip), vehicle: saline); 102 % of control under setting [3]; 100 % of control under setting [4]; 91 % of control under setting [5]. The T/C reads like this: under setting [6], 91 % of control; under setting [7], 108 % of control; under setting [8], 109 % of control; under setting [9], 100 % of control; under setting [10], 116 % of control.

For `CCOC(=O)C1(C(=O)OCC)COC(C)(C)OC1`, the T/C is 115 % of control (dose: 50.0 mg/kg/injection, schedule: Q01DX009 (ip), vehicle: Klucel (hydroxypropylcellulose) (HPC)); 104 % of control under setting [6]; 118 % of control (dose: 175.0 mg/kg/injection, schedule: Q04DX003 (ip), vehicle: saline); 105 % of control (dose: 200.0 mg/kg/injection, schedule: Q01DX009 (ip), vehicle: Klucel (hydroxypropylcellulose) (HPC)); 100 % of control and 113 % of control under setting [8]; 113 % of control (dose: 265.0 mg/kg/injection, schedule: Q04DX003 (ip), vehicle: saline). The T/C reads like this: (dose: 400.0 mg/kg/injection, schedule: Q01DX009 (ip), vehicle: Klucel (hydroxypropylcellulose) (HPC)) 105 % of control; under setting [10], 113 % of control and 122 % of control; (dose: 600.0 mg/kg/injection, schedule: Q04DX003 (ip), vehicle: saline) 109 % of control.

Consider `CS(=O)(=O)Nc1ccc(Nc2c3ccccc3nc3cc([N+](=O)[O-])ccc23)cc1`, for which the T/C (dose: 0.09 mg/kg/injection, schedule: Q04DX003 (ip), vehicle: saline with Tween-80) was 91 % of control; the T/C (dose: 0.18 mg/kg/injection, schedule: Q04DX003 (ip), vehicle: saline with Tween-80) was 100 % of control; the T/C (dose: 0.75 mg/kg/injection, schedule: Q01DX009 (ip), vehicle: saline with Tween-80) was 169 % of control; the T/C (dose: 1.5 mg/kg/injection, schedule: Q01DX009 (ip), vehicle: saline with Tween-80) was 185 % of control; the T/C (dose: 1.5 mg/kg/injection, schedule: Q04DX003 (ip), vehicle: saline with Tween-80) is 150 % of control; the T/C (dose: 3.0 mg/kg/injection, schedule: Q01DX009 (ip), vehicle: saline with Tween-80) is 235 % of control. Also, the T/C was 162 % of control (dose: 3.0 mg/kg/injection, schedule: Q04DX003 (ip), vehicle: saline with Tween-80); 252 % of control and 183 % of control and 200 % of control (dose: 6.0 mg/kg/injection, schedule: Q04DX003 (ip), vehicle: saline with Tween-80); 285 % of control and 204 % of control (dose: 9.0 mg/kg/injection, schedule: Q04DX003 (ip), vehicle: saline with Tween-80); 250 % of control and 285 % of control (dose: 14.0 mg/kg/injection, schedule: Q04DX003 (ip), vehicle: saline with Tween-80); 250 % of control and 272 % of control and 157 % of control (dose: 21.0 mg/kg/injection, schedule: Q04DX003 (ip), vehicle: saline with Tween-80).

As to `N#CC1(Nc2ccccc2)CCCCC1`, the T/C reads like this: under setting [11], 115 % of control; (dose: 50.0 mg/kg/injection, schedule: Q04DX003 (ip), vehicle: saline with Tween-80) 109 % of control; under setting [12], 109 % of control.

With `COc1cccc(C)c1NC1=NCCO1`, the T/C (dose: 1.56 mg/kg/injection, schedule: Q04DX003 (ip), vehicle: saline with Tween-80) is 117 % of control.

On to `CCOc1ccn(CC(=O)Nc2nccs2)c(=O)n1`, for which the T/C by setting is: under setting [1], 104 % of control; under setting [2], 95 % of control; under setting [3], 104 % of control; under setting [4], 114 % of control; under setting [5], 104 % of control; under setting [7], 100 % of control. Also, the T/C runs as follows: under setting [8], 106 % of control; under setting [9], 94 % of control; under setting [10], 97 % of control.

Regarding `C[N+](C)(C)CCOC(=O)c1ccccc1`, the T/C is 109 % of control under setting [13]; 117 % of control (dose: 200.0 mg/kg/injection, schedule: Q01DX009 (ip), vehicle: saline with Tween-80); 102 % of control (dose: 400.0 mg/kg/injection, schedule: Q01DX009 (ip), vehicle: saline with Tween-80).

For the compound `O=C(NC(=O)c1c(F)cccc1F)Nc1nc2cc(Cl)ccc2o1`, the T/C is, setting by setting: under setting [11], 96 % of control; (dose: 50.0 mg/kg/injection, schedule: Q01DX009 (ip), vehicle: saline with Tween-80) 96 % of control; under setting [13], 90 % of control.

In the case of `O/N=C(\c1ccccc1)C(c1ccccc1)C(Cl)(Cl)Cl` (stereo unspecified), the T/C runs as follows: under setting [14], 100 % of control; under setting [15], 100 % of control; under setting [16], 100 % of control.

As for `C[C@]1(O)CC[C@H]2[C@@H]3CCC4=CC(=O)CC[C@]4(C)[C@@]3(F)[C@@H](O)C[C@@]21C`, the T/C is 100 % of control under setting [14], 95 % of control under setting [15] and 95 % of control under setting [16].

For `COc1ccc(C(=O)c2ccccc2)cc1OC`, the T/C is 100 % of control under setting [14] and 100 % of control under setting [16].

Regarding `CC1(C)N=C(N)N=C(N)N1c1ccc2ccccc2c1`, the T/C was 120 % of control under setting [1], 160 % of control under setting [3] and 100 % of control under setting [4].

With `COc1cc(C2c3cc4c(cc3C(O)C(CO)C2CO)OCO4)cc(OC)c1OC` (stereo unspecified), the T/C was 176 % of control (dose: 17.5 mg/kg/injection, schedule: Q01DX009 (ip), vehicle: Klucel (hydroxypropylcellulose) (HPC)); 209 % of control (dose: 35.0 mg/kg/injection, schedule: Q01DX009 (ip), vehicle: Klucel (hydroxypropylcellulose) (HPC)); 109 % of control (dose: 37.5 mg/kg/injection, schedule: Q04DX003 (ip), vehicle: saline sonified); 150 % of control (dose: 44.0 mg/kg/injection, schedule: Q01DX009 (ip), vehicle: saline with Tween-80); 100 % of control (dose: 44.0 mg/kg/injection, schedule: Q04DX003 (ip), vehicle: saline sonified); 150 % of control (dose: 66.0 mg/kg/injection, schedule: Q01DX009 (ip), vehicle: saline with Tween-80). Moreover, the T/C is 105 % of control (dose: 66.0 mg/kg/injection, schedule: Q04DX003 (ip), vehicle: saline sonified); 228 % of control and 159 % of control (dose: 70.0 mg/kg/injection, schedule: Q01DX009 (ip), vehicle: Klucel (hydroxypropylcellulose) (HPC)); 122 % of control (dose: 75.0 mg/kg/injection, schedule: Q04DX003 (ip), vehicle: saline sonified); 209 % of control under setting [13]; 110 % of control (dose: 100.0 mg/kg/injection, schedule: Q04DX003 (ip), vehicle: saline sonified); 160 % of control and 183 % of control under setting [12]. For the same compound, the T/C was 172 % of control (dose: 140.0 mg/kg/injection, schedule: Q01DX009 (ip), vehicle: Klucel (hydroxypropylcellulose) (HPC)); 159 % of control (dose: 150.0 mg/kg/injection, schedule: Q01DX009 (ip), vehicle: saline with Tween-80); 110 % of control (dose: 150.0 mg/kg/injection, schedule: Q04DX003 (ip), vehicle: saline sonified); 160 % of control (dose: 150.0 mg/kg/injection, schedule: Q04DX003 (ip), vehicle: saline with Tween-80); 172 % of control and 191 % of control (dose: 200.0 mg/kg/injection, schedule: Q04DX003 (ip), vehicle: saline with Tween-80); 190 % of control (dose: 225.0 mg/kg/injection, schedule: Q04DX003 (ip), vehicle: saline with Tween-80). The T/C (dose: 300.0 mg/kg/injection, schedule: Q04DX003 (ip), vehicle: saline sonified) was 200 % of control; the T/C (dose: 400.0 mg/kg/injection, schedule: Q04DX003 (ip), vehicle: saline with Tween-80) is 200 % of control and 204 % of control.
